Laboratory results reported in patent US20050019825A9, “Common ligand mimics: pseudothiohydantoins” (priority 2002, published 2005).

Molecular target: dihydrodipicolinate reductase (DHPR) (Escherichia coli, UniProt P04036)
Assay: Screening of bi-ligands for DHPR (Example 25), kinetic assay at 340 nm
Type: biochemical
Conditions: Cibacron Blue at 2.58 μM, Example 25; read-out: inhibition of DHPR, positive control
Protocol: Screening of Biligands for Binding to Dihydrodipicolinate Reductase (DHPR)
This example describes the screening of bi-ligands having common ligand mimics for binding activity to dihydrodipicolinate reductase (DHPR).
Bi-ligands were produced by the methods of Examples 16 to 18. The bi-ligands were screened for binding to DHPR.
Stock solutions of each of the reagents were prepared in the following concentrations. Dilutions of the stock solutions were prepared prior to running the assay in the concentrations indicated below. Dilution of DHPR was prepared in 10 mM HEPES at a pH of 7.4. DHPS was not diluted and was stored in eppindorf tubes.
The L-ASA solution was prepared in the following manner. 180 μM stock solution of ASA was prepared. 100 μl of the ASA stock was mixed with 150 μl of concentrated NaHCO3 and 375 μl of […]. For use in the assay, 28.8 mM L-ASA equal 625 μl of the solution. The L-ASA stock solution was kept at a temperature of −20° C. After dilution, the pH of the 28.8 mM solution was checked and maintained between 1 and 2.
First, the DHPS reaction was monitored at 340 nm prior to and after addition of the inhibitor to detect background reaction with the inhibitor. The solution for background detection was a 945 μl solution containing 0.1 HEPES (pH 7.8), 1 mM pyruvate, 6 μM NADPH, 40 μM L-ASA, and 7 μl of 1 mg/ml DHPS at 25° C. in the volumes provided above. The sample solution was then mixed and incubated for 10 minutes. Next, 500 nM solutions of the inhibitors and enough DMSO to provide a final DMSO concentration of 5% were added. The solution was mixed and incubated for an additional 6 minutes.
In DHPR samples, 5 μl of the diluted DHPR enzyme were added. The sample was mixed for 20 seconds and then the reaction was run for 10 minutes. After a 50 second lag, the samples were read in a Cary spectrophotometer at 340 nm. Reading of the samples was continued until 300 seconds. Cuvette #1 contained the control reaction (no inhibitor), and cuvette #2 contained the positive control reaction in which Cibacron Blue at 2.58 μM was substituted for inhibitor to yield 70 to 80% inhibition. The substrate and NADPH or NAHD were kept near their Km values.

Sequence of dihydrodipicolinate reductase (DHPR) (P04036 whole entry): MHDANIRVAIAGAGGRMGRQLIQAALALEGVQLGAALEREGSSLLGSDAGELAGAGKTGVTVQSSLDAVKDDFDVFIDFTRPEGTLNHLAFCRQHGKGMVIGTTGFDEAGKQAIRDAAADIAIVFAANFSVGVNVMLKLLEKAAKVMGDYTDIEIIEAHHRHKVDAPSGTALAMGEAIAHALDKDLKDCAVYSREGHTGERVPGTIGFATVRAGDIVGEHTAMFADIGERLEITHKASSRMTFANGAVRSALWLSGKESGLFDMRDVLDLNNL

Nc1c(S(=O)(=O)O)cc(Nc2ccc(Nc3nc(Cl)nc(Nc4ccccc4S(=O)(=O)O)n3)c(S(=O)(=O)O)c2)c2c1C(=O)c1ccccc1C2=O [Cibacron Blue, reference compound]
inhibition at 2.58 µM: 70 to 80%
